In ChEMBL document CHEMBL1141856, “Iridoid glycosides of Leonurus persicus” (J Nat Prod, 1999) one finds Activity data, which are given here for one compound.

The source made the active and inactive calls. No cut-off for these calls is given here.

For this assay, the system named is Staphylococcus epidermidis. Description: Antimicrobial activity against Staphylococcus epidermidis at 50 ug/spot by agar overlay method. The class given is functional, organism-based.

Take `COc1cc(/C=C/C(=O)O[C@H]2[C@H](O[C@@H]3O[C@@H](C)[C@H](O)[C@@H](O)[C@H]3O)[C@@H](O)[C@H](OCCc3ccc(O)c(O)c3)O[C@@H]2CO)ccc1O`: the result was Active.
